Source: patent publication EP4745135A1 (Gluetacs Therapeutics (Shanghai) Co., Ltd., priority 2023, dated 2025)

What was measured:
CK1α = target: T1, CK1α (Homo sapiens, UniProt P48729+Q96SW2); experiment: Western blot, degradation of substrate protein in hPBMCs; assay type: cell-based
T1 construct: effects of the compounds of the present disclosure on the expression of target proteins in cells; endogenous in cells; host or cells: human PBMCs (Milecell Biotechnologies)

IKZF1 = target: T2, IKZF1 (Homo sapiens, UniProt Q13422+Q96SW2); experiment: as above; assay type: cell-based
T2 construct: effects of the compounds of the present disclosure on the expression of target proteins in cells; endogenous in cells; host or cells: human PBMCs (Milecell Biotechnologies)
T2 sequence (Q13422 whole entry): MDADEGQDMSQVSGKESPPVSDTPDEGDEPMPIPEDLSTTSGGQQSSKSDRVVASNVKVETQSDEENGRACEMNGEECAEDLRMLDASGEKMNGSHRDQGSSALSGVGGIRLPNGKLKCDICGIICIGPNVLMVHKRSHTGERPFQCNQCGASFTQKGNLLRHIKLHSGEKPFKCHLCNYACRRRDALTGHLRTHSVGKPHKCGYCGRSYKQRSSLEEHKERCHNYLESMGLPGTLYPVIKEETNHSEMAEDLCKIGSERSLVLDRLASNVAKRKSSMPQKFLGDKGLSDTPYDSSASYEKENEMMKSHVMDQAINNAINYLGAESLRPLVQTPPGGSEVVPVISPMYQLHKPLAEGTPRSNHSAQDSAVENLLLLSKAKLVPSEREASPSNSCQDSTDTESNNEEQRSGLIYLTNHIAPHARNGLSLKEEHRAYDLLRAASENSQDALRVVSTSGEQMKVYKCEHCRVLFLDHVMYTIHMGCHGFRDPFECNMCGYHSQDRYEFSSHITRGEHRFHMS
T2 sequence (Q96SW2 whole entry): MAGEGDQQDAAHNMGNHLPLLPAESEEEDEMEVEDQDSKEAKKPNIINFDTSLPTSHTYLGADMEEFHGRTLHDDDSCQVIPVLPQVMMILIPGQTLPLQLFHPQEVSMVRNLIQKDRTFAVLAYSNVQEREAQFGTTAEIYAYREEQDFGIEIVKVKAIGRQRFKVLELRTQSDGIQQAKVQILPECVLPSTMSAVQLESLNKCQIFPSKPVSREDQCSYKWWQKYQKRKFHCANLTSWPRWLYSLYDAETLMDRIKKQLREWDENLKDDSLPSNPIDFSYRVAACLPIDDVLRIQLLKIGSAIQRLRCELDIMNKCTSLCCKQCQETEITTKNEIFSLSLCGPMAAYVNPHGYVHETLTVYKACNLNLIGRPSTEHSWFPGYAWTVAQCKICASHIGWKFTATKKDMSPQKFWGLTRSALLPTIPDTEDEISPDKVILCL
T2 sequence (Q16531 whole entry partner): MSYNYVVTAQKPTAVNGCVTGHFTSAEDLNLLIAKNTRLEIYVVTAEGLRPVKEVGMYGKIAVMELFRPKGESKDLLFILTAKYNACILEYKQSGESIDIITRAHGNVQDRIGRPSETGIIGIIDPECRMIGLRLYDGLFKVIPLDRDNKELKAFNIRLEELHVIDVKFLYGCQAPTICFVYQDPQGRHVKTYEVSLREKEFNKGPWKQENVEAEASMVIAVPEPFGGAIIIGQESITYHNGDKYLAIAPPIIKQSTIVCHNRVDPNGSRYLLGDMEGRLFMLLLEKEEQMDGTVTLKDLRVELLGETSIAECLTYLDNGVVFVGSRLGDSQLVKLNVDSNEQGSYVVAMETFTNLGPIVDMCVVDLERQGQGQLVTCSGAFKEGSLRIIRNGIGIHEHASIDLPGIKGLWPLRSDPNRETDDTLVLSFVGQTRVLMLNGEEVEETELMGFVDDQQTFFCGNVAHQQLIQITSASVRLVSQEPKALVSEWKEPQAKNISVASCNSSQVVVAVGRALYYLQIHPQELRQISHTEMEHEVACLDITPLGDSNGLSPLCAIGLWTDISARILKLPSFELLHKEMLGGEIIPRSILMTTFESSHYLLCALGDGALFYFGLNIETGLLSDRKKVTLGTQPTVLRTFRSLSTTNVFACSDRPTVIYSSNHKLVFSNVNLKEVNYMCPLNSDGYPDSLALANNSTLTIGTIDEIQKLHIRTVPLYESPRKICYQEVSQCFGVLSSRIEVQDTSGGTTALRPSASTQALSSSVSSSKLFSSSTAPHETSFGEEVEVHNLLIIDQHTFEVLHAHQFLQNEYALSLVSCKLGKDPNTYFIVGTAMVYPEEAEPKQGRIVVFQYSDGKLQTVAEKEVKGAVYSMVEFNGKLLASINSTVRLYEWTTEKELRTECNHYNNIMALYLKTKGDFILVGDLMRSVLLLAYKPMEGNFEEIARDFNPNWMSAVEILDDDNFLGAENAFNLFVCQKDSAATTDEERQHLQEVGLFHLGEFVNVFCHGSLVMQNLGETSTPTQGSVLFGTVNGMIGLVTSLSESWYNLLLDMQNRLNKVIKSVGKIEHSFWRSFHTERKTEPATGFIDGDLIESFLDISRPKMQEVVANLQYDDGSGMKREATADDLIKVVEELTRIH

IKZF2 = target: T3, IKZF2 (Homo sapiens, UniProt Q96SW2+Q9UKS7); experiment: as above; assay type: cell-based
T3 construct: effects of the compounds of the present disclosure on the expression of target proteins in cells; endogenous in cells; host or cells: human PBMCs (Milecell Biotechnologies)
T3 sequence (Q9UKS7 whole entry): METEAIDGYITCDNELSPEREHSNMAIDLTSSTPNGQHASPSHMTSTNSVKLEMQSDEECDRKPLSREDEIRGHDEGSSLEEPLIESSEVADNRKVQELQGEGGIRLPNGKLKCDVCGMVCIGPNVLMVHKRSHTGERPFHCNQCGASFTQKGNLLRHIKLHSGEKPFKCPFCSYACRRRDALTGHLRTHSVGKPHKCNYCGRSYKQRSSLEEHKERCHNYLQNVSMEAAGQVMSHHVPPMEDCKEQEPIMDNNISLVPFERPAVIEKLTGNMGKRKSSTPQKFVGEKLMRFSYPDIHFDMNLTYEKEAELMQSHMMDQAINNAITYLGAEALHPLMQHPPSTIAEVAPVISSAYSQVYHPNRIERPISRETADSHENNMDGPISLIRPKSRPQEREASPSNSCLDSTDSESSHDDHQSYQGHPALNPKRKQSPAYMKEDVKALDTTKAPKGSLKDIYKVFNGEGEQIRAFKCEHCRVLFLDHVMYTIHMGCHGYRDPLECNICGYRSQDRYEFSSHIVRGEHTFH
T3 sequence (Q96SW2 whole entry): as the sequence (Q96SW2 whole entry) above
T3 sequence (Q16531 whole entry partner): as the sequence (Q16531 whole entry partner) above

IKZF3 = target: T4, IKZF3 (Homo sapiens, UniProt Q96SW2+Q9UKT9); experiment: as above; assay type: cell-based
T4 construct: effects of the compounds of the present disclosure on the expression of target proteins in cells; endogenous in cells; host or cells: human PBMCs (Milecell Biotechnologies)
T4 sequence (Q9UKT9 whole entry): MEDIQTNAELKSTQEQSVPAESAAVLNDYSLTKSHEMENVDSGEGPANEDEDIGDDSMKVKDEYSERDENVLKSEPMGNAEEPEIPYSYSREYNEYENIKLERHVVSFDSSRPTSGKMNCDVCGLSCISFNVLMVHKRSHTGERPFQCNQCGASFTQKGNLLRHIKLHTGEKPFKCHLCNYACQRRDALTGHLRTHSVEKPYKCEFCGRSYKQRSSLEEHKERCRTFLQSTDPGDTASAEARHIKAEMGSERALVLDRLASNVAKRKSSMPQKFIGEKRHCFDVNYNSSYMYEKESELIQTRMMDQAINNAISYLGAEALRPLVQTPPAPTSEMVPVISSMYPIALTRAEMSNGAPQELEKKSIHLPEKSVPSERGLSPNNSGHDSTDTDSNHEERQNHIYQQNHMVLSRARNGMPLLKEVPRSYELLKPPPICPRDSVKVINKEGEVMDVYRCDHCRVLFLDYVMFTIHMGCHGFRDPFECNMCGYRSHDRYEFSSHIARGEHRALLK
T4 sequence (Q96SW2 whole entry): as the sequence (Q96SW2 whole entry) above
T4 sequence (Q16531 whole entry partner): as the sequence (Q16531 whole entry partner) above

WEE1 = target: T5, WEE1 (Homo sapiens, UniProt P30291+Q96SW2); experiment: as above; assay type: cell-based
T5 construct: effects of the compounds of the present disclosure on the expression of target proteins in cells; endogenous in cells; host or cells: human PBMCs (Milecell Biotechnologies)
T5 sequence (P30291 whole entry): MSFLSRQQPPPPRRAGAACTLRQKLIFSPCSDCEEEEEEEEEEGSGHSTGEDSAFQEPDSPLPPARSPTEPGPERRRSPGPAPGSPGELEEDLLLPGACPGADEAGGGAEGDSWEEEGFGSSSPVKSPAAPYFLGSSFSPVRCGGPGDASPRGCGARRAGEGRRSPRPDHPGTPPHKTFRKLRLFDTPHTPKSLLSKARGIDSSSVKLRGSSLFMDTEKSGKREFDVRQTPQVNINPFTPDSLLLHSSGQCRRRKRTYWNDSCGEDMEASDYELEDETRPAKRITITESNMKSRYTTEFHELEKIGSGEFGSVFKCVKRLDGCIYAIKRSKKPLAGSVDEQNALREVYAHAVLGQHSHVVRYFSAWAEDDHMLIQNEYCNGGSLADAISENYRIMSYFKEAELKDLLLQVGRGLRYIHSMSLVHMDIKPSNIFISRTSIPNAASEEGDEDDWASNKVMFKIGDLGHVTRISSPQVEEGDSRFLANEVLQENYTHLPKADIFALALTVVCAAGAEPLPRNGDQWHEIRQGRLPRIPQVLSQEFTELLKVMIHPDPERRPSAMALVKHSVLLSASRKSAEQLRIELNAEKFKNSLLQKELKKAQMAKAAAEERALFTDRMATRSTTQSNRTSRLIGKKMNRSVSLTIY
T5 sequence (Q96SW2 whole entry): as the sequence (Q96SW2 whole entry) above
T5 sequence (Q16531 whole entry partner): as the sequence (Q16531 whole entry partner) above

GSPT1 = experiment: as above; assay type: cell-based, Human
[1] = target: T6, human Cereblon WT GST-tagged protein (Homo sapiens, UniProt Q96SW2); experiment: CRBN-binding affinity, HTRF (CEREBLON BINDING kit); settings: for IC50: CRBN binding, HTRF, 3 hours at room temperature, read-out: HTRF IC50; for inhibition at 0.5 µM: read-out: Inhibition Rate at 0.5 µM (%); for inhibition at 2 µM: read-out: Inhibition Rate at 2 µM (%)
T6 construct: purchased CISBIO 64BDCRBNPEH
T6 sequence (Q96SW2 whole entry): as the sequence (Q96SW2 whole entry) above

[2] = test system: Human multiple myeloma cell (MM.1S); experiment: Tumor cell proliferation inhibition (CellTiter-Meiluncell luminescent cell viability assay); settings: for inhibition at 0.01 µM: read-out: Inhibition Rate at 10 nM (%); for inhibition at 0.5 µM: read-out: Inhibition Rate at 500 nM (%)
[3] = Western blot, 24 hours of compound treatment, compounds tested at 50 nM and 500 nM (concentration for the table not stated)
[4] = 24 hours treatment, compounds at 50 nM and 500 nM (concentration behind the class not stated)

T1 sequence (P48729 whole entry): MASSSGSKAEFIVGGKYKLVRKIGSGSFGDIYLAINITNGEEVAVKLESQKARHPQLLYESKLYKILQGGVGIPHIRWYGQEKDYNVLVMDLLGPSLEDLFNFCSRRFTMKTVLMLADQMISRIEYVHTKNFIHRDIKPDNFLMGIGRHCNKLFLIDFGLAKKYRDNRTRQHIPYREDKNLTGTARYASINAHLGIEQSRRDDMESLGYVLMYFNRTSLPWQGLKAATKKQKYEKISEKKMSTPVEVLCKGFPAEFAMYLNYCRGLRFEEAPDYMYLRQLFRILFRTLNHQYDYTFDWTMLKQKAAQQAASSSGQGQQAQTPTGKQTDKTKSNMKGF
T1 sequence (Q96SW2 whole entry): as the sequence (Q96SW2 whole entry) above
T1 sequence (Q16531 whole entry partner): as the sequence (Q16531 whole entry partner) above

| SMILES | inhibition at 0.5 µM [1] [%] | inhibition at 2 µM [1] [%] | CK1α substrate protein remaining % (CK1α; [3]) | IKZF 1 substrate protein remaining % (IKZF1; [3]) | IKZF2 substrate protein remaining % (IKZF2; [3]) | IKZF3 substrate protein remaining % (IKZF3; [3]) | Wee1 substrate protein remaining % (WEE1; [3]) | GSPT1 substrate protein remaining % (GSPT1; [3]) | IC50 [1] [nM] | IC50 ([2]; Homo sapiens, MM1.S, 96 h, read-out: Inhibitory activity (IC50, nM) on tumor cell proliferation, MM.1S) [nM] | inhibition at 0.01 µM ([2]; Homo sapiens, MM1.S, 96 h) [%] | Inhibition Rate at 500 nM (%) ([2]; MM.1S, 500 nM, 96 hours) | inhibition at 0.5 µM ([2]; Homo sapiens, MM1.S, 96 h) [%] | CK1α substrate protein remaining % (CK1α; [4]) | IKZF 1 substrate protein remaining % (IKZF1; [4]) | IKZF2 substrate protein remaining % (IKZF2; [4]) | IKZF3 substrate protein remaining % (IKZF3; [4]) | Wee1 substrate protein remaining % (WEE1; [4]) | GSPT1 substrate protein remaining % (GSPT1; [4]) |
| --- | --- | --- | --- | --- | --- | --- | --- | --- | --- | --- | --- | --- | --- | --- | --- | --- | --- | --- | --- |
| O=C1CCC(N2Cc3cc(CN4CCC(N5CCc6cc(F)ccc65)CC4)ccc3C2=S)C(=O)N1 (centres unmarked) [GT-05244, 3-(5-((4-(5-fluoroindolin-1-yl)piperidin-1-yl)methyl)-1-thioxoisoindolin-2-yl)piperidine-2,6-dione] | – | – | B (80%< substrate protein remaining %≤ 100%) | B (80%< substrate protein remaining %≤ 100%) | A (0% ≤ substrate protein remaining % ≤ 80%) | B (80%< substrate protein remaining %≤ 100%) | B (80%< substrate protein remaining %≤ 100%) | A (0% ≤ substrate protein remaining % ≤ 80%) | 100 to 500 | 100 to 500 | – | – | – | – | – | – | – | – | – |
| O=C1CCC(N2Cc3c(CN4CCC(c5ccccc5F)CC4)cccc3C2=S)C(=O)N1 (centres unmarked) [GT-08595, 3-(4-((4-(2-fluorophenyl)piperidin-1-yl)methyl)-1-thioxoisoindolin-2-yl)piperidine-2,6-dione] | – | – | B (80%< substrate protein remaining %≤ 100%) | B (80%< substrate protein remaining %≤ 100%) | A (0% ≤ substrate protein remaining % ≤ 80%) | B (80%< substrate protein remaining %≤ 100%) | A (0% ≤ substrate protein remaining % ≤ 80%) | B (80%< substrate protein remaining %≤ 100%) | – | – | 40 to 50 | – | 50 to 60 | – | – | – | – | – | – |
| O=C1CCC(N2Cc3c(CN4CC=C(c5ncc6ccsc6n5)CC4)cccc3C2=S)C(=O)N1 (centres unmarked) [GT-08965, 3-(4-((4-(thieno[2,3-d]pyrimidin-2-yl)-3,6-dihydropyridin-1(2H)-yl)methyl)-1-thioxoisoindolin-2-yl)piperidine-2,6-dione] | 80 to 100 | 80 to 100 | – | – | – | – | – | – | – | – | 30 to 40 | – | 40 to 50 | – | – | – | – | – | – |
| O=C1CCC(N2Cc3c(CN4CCC(c5ccc(F)cc5)CC4)cccc3C2=S)C(=O)N1 (centres unmarked) [GT-08596, 3-(4-((4-(4-fluorophenyl)piperidin-1-yl)methyl)-1-thioxoisoindolin-2-yl)piperidine-2,6-dione] | – | – | B (80%< substrate protein remaining %≤ 100%) | B (80%< substrate protein remaining %≤ 100%) | A (0% ≤ substrate protein remaining % ≤ 80%) | B (80%< substrate protein remaining %≤ 100%) | A (0% ≤ substrate protein remaining % ≤ 80%) | B (80%< substrate protein remaining %≤ 100%) | – | – | 40 to 50 | – | 50 to 60 | – | – | – | – | – | – |
| O=C1CCC(N2Cc3cc(CN4CCC(c5noc6cc(F)ccc56)CC4)ccc3C2=S)C(=O)N1 (centres unmarked) [GT-05089, 3-(5-((4-(6-fluorobenzo[d]isoxazol-3-yl)piperidin-1-yl)methyl)-1-thioxoisoindolin-2-yl)piperidine-2,6-dione] | – | – | B (80%< substrate protein remaining %≤ 100%) | B (80%< substrate protein remaining %≤ 100%) | B (80%< substrate protein remaining %≤ 100%) | B (80%< substrate protein remaining %≤ 100%) | B (80%< substrate protein remaining %≤ 100%) | A (0% ≤ substrate protein remaining % ≤ 80%) | < 100 | – | – | – | – | – | – | – | – | – | – |
| CC1(C)CCC(CN2C3CC2CN(Cc2cccc4c2CN(C2CCC(=O)NC2=O)C4=S)C3)=C(c2ccc(Cl)cc2)C1 (centres unmarked) [GT-08271, 3-(4-((6-((4'-chloro-5,5-dimethyl-3,4,5,6-tetrahydro-[1,1'-biphenyl]-2-yl)methyl)-3,6-diazabicyclo[3.1.1]heptan-3-yl)methyl)-1-thioxoisoindolin-2-yl)piperidine-2,6-dione] | 30 to 40 | 60 to 80 | A (0% ≤ substrate protein remaining % ≤ 80%) | B (80%< substrate protein remaining %≤ 100%) | B (80%< substrate protein remaining %≤ 100%) | B (80%< substrate protein remaining %≤ 100%) | A (0% ≤ substrate protein remaining % ≤ 80%) | A (0% ≤ substrate protein remaining % ≤ 80%) | – | – | – | – | – | – | – | – | – | – | – |

The next lines start with results.

| inhibition at 0.5 µM [1] [%] | inhibition at 2 µM [1] [%] | SMILES | CK1α substrate protein remaining % (CK1α; [3]) | IKZF 1 substrate protein remaining % (IKZF1; [3]) | IKZF2 substrate protein remaining % (IKZF2; [3]) | IKZF3 substrate protein remaining % (IKZF3; [3]) | Wee1 substrate protein remaining % (WEE1; [3]) | GSPT1 substrate protein remaining % (GSPT1; [3]) | IC50 [1] [nM] | IC50 ([2]; Homo sapiens, MM1.S, 96 h, read-out: Inhibitory activity (IC50, nM) on tumor cell proliferation, MM.1S) [nM] | inhibition at 0.01 µM ([2]; Homo sapiens, MM1.S, 96 h) [%] | Inhibition Rate at 500 nM (%) ([2]; MM.1S, 500 nM, 96 hours) | inhibition at 0.5 µM ([2]; Homo sapiens, MM1.S, 96 h) [%] | CK1α substrate protein remaining % (CK1α; [4]) | IKZF 1 substrate protein remaining % (IKZF1; [4]) | IKZF2 substrate protein remaining % (IKZF2; [4]) | IKZF3 substrate protein remaining % (IKZF3; [4]) | Wee1 substrate protein remaining % (WEE1; [4]) | GSPT1 substrate protein remaining % (GSPT1; [4]) |
| --- | --- | --- | --- | --- | --- | --- | --- | --- | --- | --- | --- | --- | --- | --- | --- | --- | --- | --- | --- |
| 60 to 80 | 80 to 100 | O=C1CCC(N2Cc3cc(CN4CCN(c5ncnc6sc(-c7ccccc7)cc56)CC4)ccc3C2=S)C(=O)N1 (centres unmarked) [GT-09296, 3-(5-((4-(6-phenylthieno[2,3-d]pyrimidin-4-yl)piperazin-1-yl)methyl)-1-thioxoisoindolin-2-yl)piperidine-2,6-dione] | – | – | – | – | – | – | – | – | 40 to 50 | la7 | – | – | – | – | – | – | – |
| 60 to 80 | 80 to 100 | O=C1CCC(N2Cc3cc(CN4CCC(C5CCOc6cc(F)ccc65)CC4)ccc3C2=S)C(=O)N1 (centres unmarked) [GT-09274, 3-(5-((4-(7-fluorochroman-4-yl)piperidin-1-yl)methyl)-1-thioxoisoindolin-2-yl)piperidine-2,6-dione] | – | – | – | – | – | – | – | – | 30 to 40 | – | 40 to 50 | – | – | – | – | – | – |
| 60 to 80 | 80 to 100 | O=C1CCC(N2Cc3c(CN4CCN(c5ccc(Cl)nn5)CC4)cccc3C2=S)C(=O)N1 (centres unmarked) [GT-08811, 3-(4-((4-(6-chloropyridazin-3-yl)piperazin-1-yl)methyl)-1-thioxoisoindolin-2-yl)piperidine-2,6-dione] | A (0% ≤ substrate protein remaining % ≤ 80%) | A (0% ≤ substrate protein remaining % ≤ 80%) | A (0% ≤ substrate protein remaining % ≤ 80%) | A (0% ≤ substrate protein remaining % ≤ 80%) | A (0% ≤ substrate protein remaining % ≤ 80%) | A (0% ≤ substrate protein remaining % ≤ 80%) | – | – | – | – | – | – | – | – | – | – | – |
| 60 to 80 | 80 to 100 | Cc1nc(C2CCN(Cc3cccc4c3CN(C3CCC(=O)NC3=O)C4=S)CC2)c2c3c(sc2n1)CCC3 (centres unmarked) [GT-08935, 3-(4-((4-(2-methyl-6,7-dihydro-5H-cyclopenta[4,5]thieno[2,3-d]pyrimidin-4-yl)piperidin-1-yl)methyl)-1-thioxoisoindolin-2-yl)piperidine-2,6-dione] | – | – | – | – | – | – | – | – | – | – | – | B (80%< substrate protein remaining %≤ 100%) | A (0% ≤ substrate protein remaining % ≤ 80%) | B (80%< substrate protein remaining %≤ 100%) | A (0% ≤ substrate protein remaining % ≤ 80%) | A (0% ≤ substrate protein remaining % ≤ 80%) | A (0% ≤ substrate protein remaining % ≤ 80%) |
| 53 to 60 | 80 to 100 | Cc1cscc1C1CCN(Cc2cccc3c2CN(C2CCC(=O)NC2=O)C3=S)CC1 (centres unmarked) [GT-08309, 3-(4-((4-(4-methylthiophen-3-yl)piperidin-1-yl)methyl)-1-thioxoisoindolin-2-yl)piperidine-2,6-dione] | – | – | – | – | – | – | – | – | – | – | – | B (80%< substrate protein remaining %≤ 100%) | B (80%< substrate protein remaining %≤ 100%) | B (80%< substrate protein remaining %≤ 100%) | B (80%< substrate protein remaining %≤ 100%) | A (0% ≤ substrate protein remaining % ≤ 80%) | B (80%< substrate protein remaining %≤ 100%) |
| 53 to 60 | 80 to 100 | O=C1CCC(N2Cc3cc(CN4CCN(c5cc(F)cc(F)c5)CC4)ccc3C2=S)C(=O)N1 (centres unmarked) [GT-08628, 3-(5-((4-(3,5-difluorophenyl)piperazin-1-yl)methyl)-1-thioxoisoindolin-2-yl)piperidine-2,6-dione] | B (80%< substrate protein remaining %≤ 100%) | B (80%< substrate protein remaining %≤ 100%) | B (80%< substrate protein remaining %≤ 100%) | B (80%< substrate protein remaining %≤ 100%) | B (80%< substrate protein remaining %≤ 100%) | A (0% ≤ substrate protein remaining % ≤ 80%) | – | – | – | – | – | – | – | – | – | – | – |
